Read-outs that look alike come from different tables or passages of the source.

Data set [1] in a line: Phase 1/2 study, safety (adverse events, dose limiting toxicities, MTD). The procedure: Patients with advanced NSCLC refractory to standard therapy received daily oral doses (5-120 mg) of Compound (A) in the dose-escalation phase. Compound (A) was provided as polymorphic Form-I of the succinate salt of Compound (A). Compound (A) was formulated as a drug-in-capsule with no excipients and administered orally. Preliminary antitumor activity (by RECIST v1.1), safety and pharmacokinetics are reported for patients receiving at least one dose.
As part of the same phase ½ study as described in Example 12, a dose escalation study was performed. […] 2018.
The phase 2 portion of the study was initiated to expand the study in two 160 mg QD cohorts (EGFR exon 20 mutant NSCLC patients with or without brain metastases) and continue to enroll more patients in the 120 mg cohort.

In data set [2] the test system is advanced NSCLC (EGFR exon 20 insertions). As to the kind of experiment: Phase 1/2 study, antitumor activity / disease assessment by RECIST v1.1. Type of data set: in vivo, human. The procedure: 52 patients were enrolled as of 30 Jan. 2018.
Disease stabilization started to be reported at the 40 mg QD cohort. Disease assessments for patients who had at least one disease assessment following treatment with Compound (A) are shown in Table 21. All patients who responded have EGFR exon 20 insertion mutations and had previously been treated with platinum-based chemotherapy, EGFR TKIs, or PD-1 inhibitors.

A short description of data set [3]: Single rising dose study in healthy subjects (safety, food effect, relative bioavailability). The format is in vivo, human. The source says: This study is a randomized, double-blind, placebo-controlled single rising dose study (Part 1), followed by an open-label, crossover evaluation of the effects of a low-fat meal on the pharmacokinetics (PK) of Compound (A) (Part 2), and a crossover evaluation of the relative bioavailability of Compound (A) drug-in-capsule (DiC) (test) versus DiC (reference) in healthy subjects (Part 3).

Data set [4] is described as follows: Clinical pharmacokinetics in NSCLC patients, oral once daily. Type of data set: in vivo, human. The note with it: for half-life: human, plasma, po. The procedure: Clinical PK data includes data from the dose escalation portion of the study. Compound (A) has been administered orally once per day in 28-day treatment cycles at dose levels of 5, 10, 20, 40, 80, 120, 160 and 180 mg. […] The dosage identified in milligrams (mg) is based on the weight of the freebase of Compound (A). FIGS. 33, 34 show the mean plasma concentration-time profiles of Compound (A) following oral administration of Compound (A) once per day in NSCLC patients.
Compound (A) is administered orally on an empty stomach once per day continuously.

A short description of data set [5]: Thermodynamic aqueous solubility studies (de-ionized water, 24 h, HPLC concentration, filtrate pH, XRPD of solid). As to conditions: pH of filtrate after 24 h slurry in de-ionized water (pH 6.97), ambient temperature.
Protocol: (§1) The resulting solid material was isolated by centrifugation and analyzed by XRPD, while the filtrate was analyzed by HPLC for concentration determination. The pH of the resulting filtrate was also determined.
Data set [6] in a line: Stability stress testing (ambient light, 40° C./75% RH, 80° C., 7 days; XRPD and HPLC purity). The format is physicochemical. The procedure: Approximately 5 mg of the appropriate samples were placed into 2 mL clear glass vials and the vials were all stored open under the conditions of ambient light, 40° C./75% RH, and 80° C. for 7 days, respectively. The ambient light sample was left open on the bench at room temperature. The 80° C. sample was placed open into an 80° C. oven.

Data set [7] is described as follows: Vapour sorption analysis (GVS, hygroscopicity). Type of data set: physicochemical. As to conditions: % uptake at 90% RH. The procedure:
Approximately 10 mg of the sample was placed into a mesh vapor sorption balance pan and loaded into an IGASorp Moisture Sorption Analyzer balance by Hiden Analytical. The sample was subjected to a ramping profile from 40 to 90% relative humidity (RH) at 10% increments to 90% RH, maintaining the sample at each step until a stable weight had been achieved (98% step completion). After completion of the sorption cycle, the sample was dried using the same procedure (initially from 90% RH to 0% RH and finally taken back to the starting point of 40% RH). The sorption/desorption profiles were then repeated to give a double-cycle plot. The weight changes during the sorption/desorption cycles were plotted, allowing for the hygroscopic nature of the sample to be determined.

The next data set is described as follows: physchem. As to conditions: pH 6.97, water, thermodynamic from solid.
[8] abbreviates: 80 mg QD cohort, oral, NSCLC patients, RECIST v1.1.
[9] abbreviates: 120 mg QD cohort, oral, NSCLC patients, RECIST v1.1.

Protocol for physchem: as §1

Turning to `C=CC(=O)Nc1cc(Nc2ncc(C(=O)OC(C)C)c(-c3cn(C)c4ccccc34)n2)c(OC)cc1N(C)CCN(C)C` [Compound (A), propan-2-yl 2-[5-(acryloylamino)-4-{[2-(dimethylamino)ethyl](methyl)amino}-2-methoxyanilino]-4-(1-methyl-1H-indol-3-yl)pyrimidine-5-carboxylate], the “maximum tolerated dose (MTD)” value in data set [1] (QD, oral, NSCLC patients, dose escalation 5-180 mg QD and 40 mg BID) was 160 mg. Moreover, in data set [1] (human, in vivo), the “discontinuation for adverse event (AE), patients” value is on record as 15.4%; the “patients with Grade 3 TEAEs” value turned out to be 51.9%; the “patients with at least 1 treatment-emergent serious adverse event (SAE)” value is 38.5%; the “patients with at least 1 treatment-related SAE” value stood at 9.6%. Moreover, in data set [1] (human, in vivo), the “patients with at least 1 treatment-related adverse event (TRAE)” value is on record as 78.8% and the “patients with at least one TEAE” value is 88.5%. Further, the dose limiting toxicities result in data set [1] (in vivo) is “Two dose limiting toxicities, both pneumonitis”. Also, the “Disease assessments: SD (stable disease), number of patients” value (from here on “Disease assessments: SD (stable disease)”) in data set [2] (40 mg QD cohort, oral, NSCLC patients, RECIST v1.1) was 3 patients. Further, the “additional patients with SD” value in data set [2] (80 mg QD and above, including 1 at 180 mg QD) is on record as 6 patients. In data set [2] (80 mg QD and above, 2 confirmed PR at 80 mg QD, 1 confirmed complete response at 120 mg QD, 2 PR awaiting confirmation at 160 mg QD), this compound showed an objective response of 5 patients. In data set [2] (setting [8]), the “Disease assessments: PR (partial response), number of patients” value is 2 patients and the “Disease assessments: SD (stable disease)” value was found to be 2 patients. Also, in data set [2] (setting [9]), the “Disease assessments: CR (complete response), number of patients” value worked out at 1 patient and the “Disease assessments: SD (stable disease)” value is reported as 2 patients. For the same compound, the “Disease assessments: SD (stable disease)” value in data set [2] (160 mg QD cohort, oral, NSCLC patients, RECIST v1.1) came out at 1 patient. Besides, in data set [2] (160 mg QD cohort, oral, NSCLC patients, RECIST v1.1, unconfirmed), the “Disease assessments: PR (partial response), number of patients” value came out at 2 patients ^a. In data set [2] (52 patients, data cut), the “discontinuation for documented progressive disease (PD) per RECIST version 1.1, patients” value is recorded as 26.9%. In addition, the “progressive disease (PD) as best response” value in data set [2] (of 14 evaluable patients, 40 mg n=3, 80 mg n=1, 120 mg n=1) was determined as 5 patients. Also, the “stable disease (SD) as best response” value in data set [2] (of 14 evaluable patients, 40 mg n=3, 80 mg n=2, 120 mg n=1) is 6 patients. Moreover, in data set [2] (of 14 evaluable patients, 80 mg n=2 both confirmed, 120 mg single PR awaiting confirmation), the “partial response (PR) as best response” value was determined as 3 patients. Further, in data set [2] (prior therapies including EGFR TKIs and immuno-oncology agents), the “response (PR, CR) versus prior treatment” value is “observed in patients regardless of prior treatment therapies”. For the same compound, the SAEs entry in data set [3] was “No SAEs were reported”. In data set [3] (up to a single oral dose of 160 mg), the safety and tolerability entry was “safe and well tolerated”. Besides, the “accumulation, peak/trough ratio and molar metabolite/parent Cav ratios of the two active metabolites versus dose” value in data set [4] (5 to 180 mg QD, suggesting no obvious trend of time-dependent inhibition or auto-induction) is given as “independent of Compound (A) dose”. For the same compound, the “AUC24 dependence on dose” value in data set [4] (Cycle 2 Day 1, multiple dose, 5 to 180 mg QD) is listed as “increased in an approximately dose-proportional manner”. The “AUC0-24,ss dependence on dose” value in data set [4] (NSCLC patients, daily oral doses 5-120 mg, first results) is given as “increased in a dose-proportional manner”. Also, the half-life in data set [4] (NSCLC patients, daily oral doses 5-120 mg, first results, read-out: effective t1/2 (converted)) was approximately 16 h. Also, the half-life in data set [4] (oral QD, NSCLC patients, read-out: effective half-life based on accumulation, geometric mean (converted)) is approximately 15 h. Besides, the half-life in data set [4] (oral QD, NSCLC patients, read-out: effective half-life based on accumulation, range) lay in the range of 6 to 27 h. The “accumulation in AUC24” value in data set [4] (oral QD) is “approximately 1.5 fold”.
On to `C=CC(=O)Nc1cc(Nc2ncc(C(=O)OC(C)C)c(-c3cn(C)c4ccccc34)n2)c(OC)cc1N(C)CCN(C)C.Cc1ccc(S(=O)(=O)O)cc1` [Tosylate, isopropyl 2-((5-acrylamido-4-((2-(dimethylamino)ethyl) (methyl)amino)-2-methoxyphenyl)amino)-4-(1-methyl-1H-indol-3-yl)pyrimidine-5-carboxylate tosylate], for which, in data set [5], the “pH at Saturation” value turned out to be 6.38. Moreover, in data set [6] (7 days, all storage conditions (ambient light, 40° C./75% RH, 80° C.)), the XRPD after storage result is reported as “No change under all storage”. Besides, the “Purity, 40° C./75% RH” value in data set [6] (HPLC purity after 7 days, open vial, 40° C./75% RH) is 99.4. For the same compound, the “Purity, 80° C.” value in data set [6] (HPLC purity after 7 days, open vial, 80° C.) is listed as 99.4. In data set [6] (HPLC purity after 7 days, open vial, ambient light, room temperature), the “Purity, Ambient light” value is on record as 99.5. Moreover, the Input purity in data set [6] (HPLC purity before stress storage) stood at 99.7. Also, the “Chemical Stability” value in data set [6] (summary in Table 17) is given as “Stable”. Further, the “GVS (Hygroscopicity)” value in data set [7] is 1.4%. Moreover, the solubility at 24 h in the data set “physchem” came out at 400 µg/mL.

Broadly, the solubility is the concentration that dissolves in the medium under given conditions. A low value points to a poorly soluble substance.
